For test [1], the system named is IL-1β release in THP-1-ASC-GFP cells after NLRP3 activation. Nature of the test: IC50 determination of IL-1β release inhibition in THP-1-ASC-GFP cells. Format: cell-based. The note with it: THP1-ASC-GFP; THP-1-ASC-GFP cells, LPS priming 4 h, nigericin; average of at least three experiments; read-out: IL-1β IC50 (nM) THP1 cells. Summed up:
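THP-1-ASC-GFP cells were primed with 1 μg/mL LPS for 4 h, pretreated with compound for 30 min, then stimulated with nigericin plus compound for 1 h. Secreted IL-1β in supernatants was quantified by MSD electrochemiluminescence immunoassay. IC50 values were calculated from the measured IL-1β concentrations.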

For test [2], the system named is IL-1β release in U937 cells after NLRP3 activation. As to the kind of experiment: IC50 determination of IL-1β release inhibition in U937 cells. The settings on record: Homo sapiens, U-937; PMA-differentiated U937 cells, LPS priming 5 h, nigericin; average of at least three experiments; read-out: IL-1β IC50 (nM) U937 cells. Format: cell-based. Summed up: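 PMA-differentiated U937 cells (90 h) were primed 5 h with 1 μg/mL LPS, pre-incubated 30 min with compound, then stimulated with nigericin for 1 h. Supernatant IL-1β was quantified by MSD electrochemiluminescence. IC50 was derived from IL-1β concentration, with duplicate wells per compound.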

Regarding `CNCc1coc([S@](=N)(=O)NC(=O)Nc2c3c(cc4c2CCC4)CCC3)c1` (single isomer, unassigned) [Example 75], the IC50 in test [1] and in test [2] was 50 to 500 nM in each case.

`Cc1oc(S(=N)(=O)NC(=O)Nc2c3c(cc4c2CCC4)CCC3)cc1CNC(C)C` (single isomer, unassigned) [Example 27, N-((1,2,3,5,6,7-hexahydro-s-indacen-4-yl)carbamoyl)-4-((isopropylamino)methyl)-5-methylfuran-2-sulfonimidamide]: the IC50 in test [1] and in test [2] was less than 5 nM in each case.

Regarding `CC(C)NCc1coc([S@@](=N)(=O)NC(=O)Nc2c3c(c(F)c4c2CCC4)CCC3)c1` (single isomer, unassigned) [Example 30], the IC50 in test [1] is 50 to 500 nM; in test [2] it was more than 500 nM.

Regarding `Cc1oc(S(=N)(=O)NC(=O)Nc2c3c(cc4c2CCC4)CCC3)cc1CN(C)CC1(CO)CCC1` (stereo not shown) [Example 9, N-((1,2,3,5,6,7-hexahydro-s-indacen-4-yl)carbamoyl)-4-((((1-(hydroxymethyl)cyclobutyl)methyl)(methyl)amino)methyl)-5-methylfuran-2-sulfonimidamide], the IC50 was less than 5 nM in test [1] and 5 to 50 nM in test [2].

`Cc1oc(S(=N)(=O)NC(=O)Nc2c3c(cc4c2CCC4)CCC3)cc1CN1CC[C@H](CO)C1` (stereo partly drawn) [Example 6, N-((1,2,3,5,6,7-hexahydro-s-indacen-4-yl)carbamoyl)-4-(((S)-3-(hydroxymethyl)pyrrolidin-1-yl)methyl)-5-methylfuran-2-sulfonimidamide]: the IC50 was less than 5 nM in test [1] and 5 to 50 nM in test [2].

For the compound `Cc1oc(S(=N)(=O)NC(=O)Nc2c3c(cc4c2CCC4)CCC3)cc1CN1CCC[C@H]1CO` (stereo partly drawn) [Example 8, N-((1,2,3,5,6,7-hexahydro-s-indacen-4-yl)carbamoyl)-4-(((S)-2-(hydroxymethyl)pyrrolidin-1-yl)methyl)-5-methylfuran-2-sulfonimidamide], the IC50 in test [1] and in test [2] was less than 5 nM each time.

Consider `Cc1cc(S(=O)(=O)NC(=O)Nc2c3c(c(Cl)c4c2CCC4)CCC3)oc1CN(C)CC1(O)CCC1` [Example 57, N-((8-chloro-1,2,3,5,6,7-hexahydro-s-indacen-4-yl)carbamoyl)-5-((((1-hydroxycyclobutyl)methyl)(methyl)amino)methyl)-4-methylfuran-2-sulfonamide], for which the IC50 in test [1] and in test [2] was 5 to 50 nM throughout.

As to `Cn1nc(S(=O)(=O)NC(=O)Nc2c3c(c(F)c4c2CCC4)CCC3)cc1CN1CC[C@H](O)C1` [Example 60, (S)-N-((8-fluoro-1,2,3,5,6,7-hexahydro-s-indacen-4-yl)carbamoyl)-5-((3-hydroxypyrrolidin-1-yl)methyl)-1-methyl-1H-pyrazole-3-sulfonamide], the 50% inhibitory concentration (IC50) fell in the range of 5 to 50 nM in test [1] and 50 to 500 nM in test [2].

Turning to `CN(CC1(O)CCC1)C(=O)c1coc(S(=N)(=O)NC(=O)Nc2c3c(cc4c2CCC4)CCC3)c1` (stereo not shown) [Example 4, 5-(N-((1,2,3,5,6,7-hexahydro-s-indacen-4-yl)carbamoyl)sulfamidimidoyl)-N-((1-hydroxycyclobutyl)methyl)-N-methylfuran-3-carboxamide], the IC50 in test [1] and in test [2] was less than 5 nM each time.

Take `Cc1oc(S(=O)(=O)NC(=O)Nc2c3c(c(F)c4c2CCC4)CCC3)cc1CNCC1(O)CCC1` [Example 36, N-((8-fluoro-1,2,3,5,6,7-hexahydro-s-indacen-4-yl)carbamoyl)-4-((((1-hydroxycyclobutyl)methyl)amino)methyl)-5-methylfuran-2-sulfonamide]: the IC50 was in the range of 5 to 50 nM in test [1] and 50 to 500 nM in test [2].

Take `Cc1oc(S(=O)(=O)NC(=O)Nc2c3c(c(F)c4c2CCC4)CCC3)cc1CN1C[C@@H](O)[C@H](F)C1` [Example 43, N-((8-fluoro-1,2,3,5,6,7-hexahydro-s-indacen-4-yl)carbamoyl)-4-(((3R,4R)-3-fluoro-4-hydroxypyrrolidin-1-yl)methyl)-5-methylfuran-2-sulfonamide]: the IC50 in test [1] was less than 5 nM; in test [2] it was 5 to 50 nM.

(Values after patent publication US20250388568A1, “NLRP3 INHIBITORS” (Kodiak Sciences Inc., priority 2022, published 2025).)
